From patent publication US5441950A, “Substituted dibenzoxazepine and dibenzthiazepine carbamate compounds, pharmaceutical compositions and methods of use” (G. D. Searle & Co., priority 1994, dated 1995) come the findings set out here.

The structures appear in SMILES notation. Where a name gives a salt, the structure may show the parent alone. Read-outs that look alike come from different tables or passages of the source.

One experiment relates to mice. Kind of experiment: Writhing Assay (PBQ-induced writhing, analgesia, intragastric). The following applies: for responders at 30 mg/kg: ip, 0.5 h, read-out: WRITHING ASSAY, number of mice out of nine or ten in which the test compound produced analgesia. Type of experiment: in vivo, mouse (Charles River male albino mice). The text has this:
The Writhing Assay is one of the most widely-used experimental procedures for measuring the analgesic activity of different narcotic and nonnarcotic analgesic agents, and involves the continuous, chemically-induced pain of visceral origin to an animal, such as a mouse or rat. [Gyires et al., Arch. int. […] Chemicals which may be used to induce this pain include phenylbenzoquinone (PBQ) and acetic acid. As a result of the chemical irritation to the animal, a characteristic stretching and writhing of the animal (dorsiflexion of the animal's back, extension of its hindlimbs and the strong contraction of its abdominal musculature) will generally occur. […] Drugs which reduce the number of writhes of the animal appear to restore the normal nociceptive threshold of the animal. […] Charles River male albino mice, weighing 20 to 30 grams, were used in this assay. […] Ten mice which were given saline in place of a test compound of the invention were used as a control group. Five minutes later, each mouse was individually placed into a glass beaker for observation, and the number of writhes occurring during the following ten-minute period was counted. […] The standard initial screening dose of a test compound employed in this assay was 30 mpk […].

In experiment [1] the target is T1, prostaglandin E2 -induced contractions of segments of guinea pig ileum (Cavia porcellus, UniProt A0A286XHJ6).
T1 construct: The ilea were then quickly removed from the guinea pigs; from tissue; host or cells: guinea pig ileum segments (male albino guinea pigs)
T1 sequence (A0A286XHJ6 1-405): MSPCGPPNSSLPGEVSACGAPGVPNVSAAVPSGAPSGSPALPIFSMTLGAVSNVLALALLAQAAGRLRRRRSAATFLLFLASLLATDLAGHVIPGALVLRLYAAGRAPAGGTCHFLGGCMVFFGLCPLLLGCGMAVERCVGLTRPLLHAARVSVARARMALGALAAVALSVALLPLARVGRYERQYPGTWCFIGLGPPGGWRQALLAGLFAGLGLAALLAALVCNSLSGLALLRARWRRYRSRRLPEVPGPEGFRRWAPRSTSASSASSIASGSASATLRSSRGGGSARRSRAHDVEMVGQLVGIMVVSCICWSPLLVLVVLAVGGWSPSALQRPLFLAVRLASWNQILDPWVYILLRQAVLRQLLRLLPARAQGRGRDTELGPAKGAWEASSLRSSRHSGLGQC
Kind of experiment: Prostaglandin (PGE) Antagonism Assay (prostaglandin E2-induced contractions of guinea pig ileum segments). The following applies: for PGE in guinea pig ileum, dose ratio: dose ratio of prostaglandin E2 EC50 doses, initial test concentration 3 micromolar. The text has this:
The ilea were then quickly removed from the guinea pigs and placed in a modified Tyrode solution, a solution which is known to those skilled in the art, containing one-half of the usual amount of magnesium ions. […] Data for a control prostaglandin E2 dose response curve plotting concentration of prostaglandin E2 versus the intensity of contractions, detected isotonically, was then obtained by experimentally adjusting the dose of the prostaglandin E2 being injected into the tissue bath, in a manner known by those of skill in the art. Solutions or suspensions containing an initial concentration (3 micromolar) of a test compound in modified Tyrode solution ("test solutions/suspensions") were then separately substituted for the control bath solution. Each test solution/suspension was then kept in constant contact with the ileum tissue, except for brief periods to drain the bath in preparation for rinsing with fresh test solution/suspension. A second prostaglandin E2 dose response curve was then generated for prostaglandin E2 in the presence of a test compound. A dose ratio of EC50 doses was then calculated from the results of each test in a manner known by those of skill in the art.

Setting [2] is: Mus musculus, 30 mg per kilogram, I.G., 30 min before PBQ i.p., writhes <= one-half the control median.

For the molecule `O=C(CNC(=O)N1Cc2ccccc2Oc2ccc(Cl)cc21)NCc1ccncc1` [Example 6, 8-chloro-N-[[[(4-pyridinylmethyl)amino]carbonyl]methyl]-10(11H)-dibenz[b,f][1,4]oxazepinecarboxamide, hydrochloride], the responders at 30 mg/kg in the experiment on mice (setting [2]) was determined as 60%. Moreover, the Kb in experiment [1] (Schild plot, prostaglandin E2-induced contractions, read-out: PGE in guinea pig ileum, pA2 (converted)) is 0.955 µM.

As for `Cl.O=C(CNC(=O)N1Cc2ccccc2Oc2ccc(Cl)cc21)NCCc1ccccn1` [Example 8, 8-chloro-N-[[[[2-(2-pyridinyl)ethyl]amino]carbonyl]methyl]-10(11H) dibenz[b,f][1,4]oxazepinecarboxamide hydrochloride], in the experiment on mice (setting [2]), the responders at 30 mg/kg came to 30%. For the same molecule, the “PGE in guinea pig ileum, dose ratio” value in experiment [1] was found to be 11.02.

`O=C(OCCCc1ccncc1)N1Cc2ccccc2Oc2ccc(Cl)cc21` [Example 10, 3-(4-pyridinyl)propyl 8-chloro-10(11H)dibenz[b,f][1,4]oxazepinecarboxylate,monohydrochloride]: the responders at 30 mg/kg in the experiment on mice (setting [2]) came out at 30%. Also, the “PGE in guinea pig ileum, dose ratio” value in experiment [1] turned out to be 2.63.

In the case of `CN(C)Cc1ccc(COC(=O)N2Cc3ccccc3Oc3ccc(Cl)cc32)o1` [Example 12, [2-(dimethylaminomethyl)furan-5-yl]methyl-8-chlorodibenz[b,f][1,4]oxazepine-10(11H)carboxylate, monohydrochloride], the responders at 30 mg/kg with mice (setting [2]) amounted to 20%.

`O=C(OCCCNCc1ccncc1)N1Cc2ccccc2Oc2ccc(Cl)cc21` [Example 14, 3-[[(4-pyridinyl)methyl]amino]propyl-8-chlorodibenz[b, f][1,4]oxazepine-10(11H)carboxylate, hydrochloride]: in the experiment on mice (setting [2]), the responders at 30 mg/kg worked out at 50%. In addition, the “PGE in guinea pig ileum, dose ratio” value in experiment [1] was found to be 25.03.

Consider `O=C(CNC(=O)N1Cc2ccccc2Oc2ccc(Cl)cc21)Nc1ccncc1` [Example 16, 8-chloro-N-[[[(4-pyridinyl)amino]carbonyl]methyl]dibenz[b,f][1,4]oxazepine-10(11H)carboxamide, monohydrochloride], for which the responders at 30 mg/kg in the experiment with mice (setting [2]) is 80%. The “PGE in guinea pig ileum, dose ratio” value in experiment [1] was 1.70.

With `CC(C)(CNC(=O)OCc1ccccc1)NC(=O)N1Cc2ccccc2Oc2ccc(Cl)cc21` [Example 18, phenylmethyl N-[2-[[(8-chlorodibenz[b,f][1,4]oxazepine-10(11H)-yl]carbonyl]amino]-2-methylpropyl]carbamate], the responders at 30 mg/kg with mice (setting [2]) is 40%. For the same molecule, the “PGE in guinea pig ileum, dose ratio” value in experiment [1] is 2.6.

On to `O.O=C(NCc1nn[nH]n1)N1Cc2ccccc2Oc2ccc(Cl)cc21.[Na]` [Example 20, 8-chloro-N-[(2H-tetrazol-5-yl)methyl]dibenz[b,f][1,4]oxazepine-10(11H)-carboxamide, sodium salt, hydrate], for which the responders at 30 mg/kg with mice (Mus musculus) is 20%. Further, the “PGE in guinea pig ileum, dose ratio” value in experiment [1] turned out to be 1.80.

In the case of `O=C(NCCCCc1ccncc1)N1Cc2ccccc2Oc2ccc(Cl)cc21` [Example 24, 8-chloro-N-[4-(4-pyridinyl)butyl]dibenz[b,f][1,4]oxazepine-10(11H)-carboxamide], in the experiment on mice (setting [2]), the responders at 30 mg/kg amounted to 60%. Moreover, the “PGE in guinea pig ileum, dose ratio” value in experiment [1] came to 7.9.

In the case of `CC(C)(CNC(=O)c1ccncc1)NC(=O)N1Cc2ccccc2Oc2ccc(Cl)cc21` [Example 28, 8-chloro-N-[2-[[(4-pyridinyl)carbonyl]amino-1,1-dimethylethyl]dibenz[b,f][1,4]oxazepine-10(11H)carboxamide, hydrochloride hydrate], the responders at 30 mg/kg in the experiment on mice (setting [2]) stood at 20%. The “PGE in guinea pig ileum, dose ratio” value in experiment [1] amounted to 2.0.

As to `CCN(CC)CCCCCOC(=O)N1Cc2ccccc2Oc2ccc(Cl)cc21` [Example 29, 5-(diethylamino)pentyl 8-chlorodibenz[b,f][1,4]oxazepine-10(11H)-carboxylate], in the experiment on mice (setting [2]), the responders at 30 mg/kg worked out at 70%. The “potency in the Writhing Assay (in words)” value in the experiment with mice (mice, I.G.) is listed as “most potent compound of the invention tested in this assay”.

For the molecule `COC(=O)[C@@H](C)NC(=O)N1Cc2ccccc2Oc2ccc(Cl)cc21` [Example 31, methyl (D)-2R-[[(8-chlorodibenz[b,f][1,4]oxazepine-10(11H)-yl)carbonyl]amino]propanoate], in the experiment on mice (setting [2]), the responders at 30 mg/kg is 80%. For the same molecule, in experiment [1], the “PGE in guinea pig ileum, dose ratio” value is recorded as 1.4.

As for `COC(=O)[C@H](C)NC(=O)N1Cc2ccccc2Oc2ccc(Cl)cc21` [Example 32, methyl (L)-2R-[[(8-chlorodibenz[b,f][1,4]oxazepine-10-(11H)-yl)carbonyl]amino]propanoate], the ED50 in the experiment on mice (Mus musculus, po, I.G., mice, PBQ, read-out: WRITHING ASSAY, ED50 Dose) was 7.2 mg/kg. In addition, the “PGE in guinea pig ileum, dose ratio” value in experiment [1] was found to be 3.5.

Turning to `C[C@@H](NC(=O)N1Cc2ccccc2Oc2ccc(Cl)cc21)C(=O)O` [Example 33, (D)-2R-[[(8-chlorodibenz[b,f][1,4]oxazepine-10(11H)yl)carbonyl]amino]propanoic acid], the responders at 30 mg/kg in the experiment on mice (setting [2]) worked out at 60%. Further, the “PGE in guinea pig ileum, dose ratio” value in experiment [1] came to 2.0.

Take `C[C@H](NC(=O)N1Cc2ccccc2Oc2ccc(Cl)cc21)C(=O)O` [Example 34, (L)-2S-[[(8-chlorodibenz[b,f][1,4]oxazepine-10(11H)yl)carbonyl]amino]propanoic acid]: the responders at 30 mg/kg in the experiment with mice (setting [2]) worked out at 20%. In addition, the “PGE in guinea pig ileum, dose ratio” value in experiment [1] is listed as 1.7.

Consider `O=C(OCc1ccccc1)N1Cc2ccccc2Oc2ccc(Cl)cc21` [Example 43, phenylmethyl 8-chlorodibenz[b,f][1,4]oxazepine-10(11H)-carboxylate], for which the “PGE in guinea pig ileum, dose ratio” value in experiment [1] was 0.3.

On to `O=C(OCc1ccncc1)N1Cc2ccccc2Oc2ccc(Cl)cc21` [Example 44, (4-pyridinyl)methyl 8-chlorodibenz[b,f][1,4]oxazepine-10(11H)-carboxylate], for which, in experiment [1], the “PGE in guinea pig ileum, dose ratio” value was 365.

Regarding `O=C(NCc1ccncc1)N1Cc2ccccc2Oc2ccc(Cl)cc21` [Example 45, 8-chloro-N-(4-pyridinylmethyl)dibenz[b,f][1,4]oxazepine-10(11H)carboxamide,monohydrochloride], the responders at 30 mg/kg in the experiment on mice (setting [2]) was 60%. The “PGE in guinea pig ileum, dose ratio” value in experiment [1] is listed as 1.0.

With `O=C(NCc1cccnc1)N1Cc2ccccc2Oc2ccc(Cl)cc21` [Example 46, 8-chloro-N-(3-pyridinylmethyl)dibenz[b,f]oxazepine-10(11H)-carboxamide, monohydrochloride], in the experiment with mice (setting [2]), the responders at 30 mg/kg was found to be 40%. Besides, the “PGE in guinea pig ileum, dose ratio” value in experiment [1] is 2.7.

Consider `O=C(NCc1ccccn1)N1Cc2ccccc2Oc2ccc(Cl)cc21` [Example 47, 8-chloro-N-(2-pyridinylmethyl)dibenz[b,f][1,4]oxazepine-10(11H)-carboxamide, monohydrochloride], for which, in the experiment on mice (setting [2]), the responders at 30 mg/kg was 80%.
